Columns and labels:
C33A = experiment: MTT cell viability / cisplatin IC50 determination; assay type: cell-based
Method: (§1) HeLa, SiHa, CaSki and C33A cell lines were purchased from the American Type Culture Collection (ATCC) and maintained in Dulbecco's Modified Eagle's Medium (DMEM, Gibco, Life Technologies) containing 10% Fetal Bovine Serum (Gibco, Life Technologies), supplemented with 100 U/mL penicillin and 100 μg/mL streptomycin. Cells were cultured at 37° C. in a humidified chamber with 5% CO2. All cell lines were authenticated by DNA profiling using the Cell ID System (Promega, Madison, WI, USA).
(§2) Cells were plated in 96-well plates and subjected to single or CT (2 h INI-43 pre-treatment followed by cisplatin treatment, without removing IN1-43 from the media) for 48 h. Following treatment, MTT (Sigma) was added and 4 h later crystals solubilized using 10% SLS in 0.01 M HCl. Absorbencies were measured at 595 nm and IC50 values determined via plotting [Fa/(1-Fa)] in log scale against log cisplatin concentration, where:
(§3) The half inhibitory concentration was calculated using the formula IC50=10^x-intercept

CaSki = experiment: MTT cell viability / cisplatin IC50 determination; assay type: cell-based; conditions: for cell viability, combination treatment vs cisplatin-only: 5 μM INI-43 pre-treatment, fixed cisplatin concentrations, MTT 48 h
Method: as §1, §2, §3

HeLa [1] = experiment: MTT cell viability / cisplatin IC50 determination; assay type: cell-based; conditions: for cell viability, combination treatment vs cisplatin-only: 5 μM INI-43 pre-treatment, fixed cisplatin concentrations, MTT 48 h
Method: as §1, §2, §3

SiHa = experiment: MTT cell viability / cisplatin IC50 determination; assay type: cell-based; conditions: for cell viability, combination treatment vs cisplatin-only: 5 μM INI-43 pre-treatment, fixed cisplatin concentrations, MTT 48 h
Method: as §1, §2, §3

HeLa cells = experiment: Drug washout experiments (MTT); assay type: cell-based
Method: Cells were plated in 96-well plates and subjected to 2 h INI-43 pre-treatment followed by cisplatin treatment, with or without removing INI-43 from the media, for 48 h. Following treatment, MTT (Sigma) was added and 4 h later crystals solubilized using 10% SLS in 0.01 M HCl.

HeLa [2] = experiment: Combination index (CI) determination, Chou-Talalay method; assay type: cell-based; conditions: HeLa cervical cancer cell line
Method: (§4) To elucidate the nature of the combined use of INI-43 and cisplatin, the Chou-Talalay method was adopted (Chou T C, Talalay P. Quantitative analysis of dose-effect relationships: the combined effects of multiple drugs or enzyme inhibitors. Adv Enzym Regul. 1984; 22:27-55). Cell viability was determined after 48-h treatment at fixed INI-43 to cisplatin ratios of 1:3, 1:4 and 1:5 (Table 1 below). Cell viability was converted to fraction affected (Fa) and CI calculated using CompuSyn software (ComboSyn, Inc.).

Kyse 30 = experiment: as above; assay type: cell-based; conditions: Kyse 30 oesophageal cancer cell line
Method: as §4

Mel 80 = experiment: as above; assay type: cell-based; conditions: Mel 80 cervical cancer cell line
Method: as §4

SiHa cells = experiment: as above; assay type: cell-based; conditions: INI-43 to cisplatin ratios 1:3, 1:4 and 1:5, at Fa>0.2, 2 h pre-incubation, 48 h
Method: as §4

WHC05 = experiment: as above; assay type: cell-based; conditions: WHC05 oesophageal cancer cell line
Method: as §4

[3] = tested on: NFκB-p50 and NFκB-p65 in SiHa cells; experiment: Nuclear/cytoplasmic fractionation and Western blot; assay type: cell-based; conditions: INI-43-cisplatin CT vs cisplatin
Method: For protein extraction, cells were washed with PBS and lysed using RIPA buffer (50 mM Tris-CI, pH 7.4, 150 mM NaCl, 1% (w/v) sodium deoxycholate, 0.1% (v/v) SDS, 1% (v/v) Triton X-100, 2 mM EGTA, 2 mM EDTA, 50 mM NaF, 5 mM Na2P2O7, 1× complete protease inhibitor cocktail (Roche) and 0.1 M Sodium Orthovanadate). For PARP cleavage analysis, dead cells were collected by centrifugation and combined with live cell lysates. Lysates were sonicated, centrifuged, and the supernatant quantified using the BCA Protein Assay Kit (Pierce, Thermo Scientific) according to the manufacturer's instructions. […]
For nuclear/cytoplasmic protein extraction, cells were collected by trypsinization. […] The fractions were quantified using the BCA Protein Assay Kit (Pierce, Thermo Scientific) according to the manufacturer's instructions, followed by western blot analysis.

γH2AX = experiment: Western blot of phosphorylated Histone 2AX (DNA damage marker); assay type: cell-based; conditions: INI-43-cisplatin CT, 24 h, concentration dependent
Method: For protein extraction, cells were washed with PBS and lysed using RIPA buffer (50 mM Tris-CI, pH 7.4, 150 mM NaCl, 1% (w/v) sodium deoxycholate, 0.1% (v/v) SDS, 1% (v/v) Triton X-100, 2 mM EGTA, 2 mM EDTA, 50 mM NaF, 5 mM Na2P2O7, 1× complete protease inhibitor cocktail (Roche) and 0.1 M Sodium Orthovanadate). For PARP cleavage analysis, dead cells were collected by centrifugation and combined with live cell lysates. Lysates were sonicated, centrifuged, and the supernatant quantified using the BCA Protein Assay Kit (Pierce, Thermo Scientific) according to the manufacturer's instructions. Proteins were subjected to Western blot analysis using the following antibodies: rabbit anti-Kpnβ1 (H-300, sc-11,367, Santa Cruz), rabbit anti-β-tubulin (H-235, sc-9104, Santa Cruz), rabbit anti-PARP1/2 antibody (H-250, sc-7150, Santa Cruz), mouse anti-GAPDH (0411, sc-47,724, Santa Cruz), rabbit anti-p21 (H-164, sc-756, Santa Cruz), rabbit anti-Mcl-1 (H-260, sc-20,679, Santa Cruz), mouse anti-cyclin D1 (HD11, sc-246, Santa Cruz), rabbit anti-c-Myc (N-262, sc-764, Santa Cruz), mouse anti-p53 (DO-7, M7001, DakoCytomation), mouse anti-XIAP (610,763, BD Biosciences), and rabbit anti-phospho-Histone H2AX (γH2AX, Ser139, 20E3, #9718, Cell Signal).

NFκB-p65 in cancer cells = conditions: van der Watt et al. 2016; cited from earlier work
[4] = 2 h INI-43 pre-treatment then cisplatin 48 h, vs no pre-treatment

decrease in cisplatin IC50 (HeLa [1]; [4]): 44%
SMILES: CN(C)CCCn1c(N)c(-c2nc3ccccc3[nH]2)c2nc3ccccc3nc21 [INI-43]
cell viability, INI-43 on its own (C33A; 5 μM INI-43): did not affect cell viability
cell viability, combination treatment vs cisplatin-only (C33A; 5 μM INI-43 pre-treatment, fixed cisplatin concentrations, MTT 48 h): no change in cell viability
change in cisplatin IC50 (C33A; [4]): no change
cell viability, INI-43 on its own (CaSki; 5 μM INI-43): did not affect cell viability
cell viability, combination treatment vs cisplatin-only (CaSki): significantly decreased cell viability
cell viability, combination treatment vs cisplatin-only (CaSki; listed as Compound A): increased cisplatin sensitivity
change in cisplatin IC50 (CaSki; [4]): small reduction
cell viability, INI-43 on its own (HeLa [1]; 5 μM INI-43): did not affect cell viability
cell viability, combination treatment vs cisplatin-only (HeLa [1]): significantly decreased cell viability
cell viability, combination treatment vs cisplatin-only (HeLa [1]; listed as Compound A): increased cisplatin sensitivity
cell viability, INI-43 on its own (SiHa; 5 μM INI-43): did not affect cell viability
cell viability, combination treatment vs cisplatin-only (SiHa): significantly decreased cell viability
cell viability, combination treatment vs cisplatin-only (SiHa; listed as Compound A): increased cisplatin sensitivity
decrease in cisplatin IC50 (SiHa; [4]): 46%
cell viability, combination treatment vs cisplatin alone after INI-43 washout (HeLa cells; 2 h INI-43, removed before cisplatin treatment (washout 1 and 2), 48 h): significantly reduced cell viability
enhancement of cell death upon combination treatment after INI-43 washout (HeLa cells; HeLa cells, vs INI-43 still present): slightly reduced
nature of INI-43 and cisplatin combination (CI) (HeLa [2]): synergism
nature of INI-43 and cisplatin combination (CI) (Kyse 30): synergism
nature of INI-43 and cisplatin combination (CI) (Mel 80): synergism
combination index (CI) values (SiHa cells): below 1
nature of INI-43 and cisplatin combination (CI) (WHC05): synergism
levels of NFκB-p50 and NFκB-p65 in the nucleus [3]: reduced this effect
γH2AX levels (γH2AX): increased
PMA-stimulated nuclear entry of NFκB-p65 (NFκB-p65 in cancer cells): prohibited

Source: US20240342168A1, “SMALL MOLECULE INHIBITORS FOR ANTI-CANCER COMBINATION THERAPY” (UNIVERSITY OF CAPE TOWN, priority 2021, published 2024)
